Experimental data as given in patent US20230233541A1, “SUBSTITUTED BENZAMIDES AS MODULATORS OF TREX1” (Constellation Pharmaceuticals, Inc., priority 2020, published 2023).
pEC50: −log10 of the molar value.

What was measured:
full length human TREX1 = target: T1, full length human TREX1 (Homo sapiens, UniProt Q9NSU2); experiment: TREX1 Biochemical Assay (fluorescence assay, degradation of dsDNA substrate); conditions: 150 pM TREX1, 60 nM dsDNA substrate, 25 minutes at room temperature; read-out: hTREX1 EC50
T1 construct: N-terminally His-Tev tagged full length human TREX1; His-Tev (His tag with TEV protease site) (N); made in house; host or cells: E. coli
T1 sequence (Q9NSU2 1-314): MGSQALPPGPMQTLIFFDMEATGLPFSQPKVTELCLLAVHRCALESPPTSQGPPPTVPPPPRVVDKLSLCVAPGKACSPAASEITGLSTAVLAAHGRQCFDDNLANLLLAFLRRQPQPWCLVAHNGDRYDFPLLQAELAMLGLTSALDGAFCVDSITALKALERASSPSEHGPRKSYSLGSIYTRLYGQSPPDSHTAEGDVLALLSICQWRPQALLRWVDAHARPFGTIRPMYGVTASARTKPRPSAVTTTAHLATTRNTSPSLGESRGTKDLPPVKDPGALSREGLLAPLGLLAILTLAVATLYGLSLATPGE
Experimental: Degradation of the dsDNA liberates free fluorophore to produce a fluorescent signal. Specifically, 7.5 μL of N-terminally His-Tev tagged full length human TREX1 (expressed in E. coli and purified in house) in reaction buffer (50 mM Tris (pH 7.4), 150 mM NaCl, 2 mM DTT, 0.1 mg/mL BSA, 0.01% (v/v) Tween-20 and 100 mM MgCl2) was added to a 384-well Black ProxiPlate Plus (Perkin Elmer) which already contained compound (150 nL) at varying concentrations as a 10-point dose-response in DMSO. To this was added 7.5 μL of dsDNA substrate (Strand A: 5′ TEX615/GCT AGG CAG 3′; Strand B: 5′ CTG CCT AGC/IAbRQSp (Integrated DNA Technologies)) in reaction buffer. Final concentrations were 150 pM TREX1, 60 nM dsDNA substrate in reaction buffer with 1.0% DMSO (v/v). After 25 minutes at room temperature, reactions were quenched by the addition of 5 μL of stop buffer (same as reaction buffer plus 200 mM EDTA). Final concentrations in the quenched reaction were 112.5 pM TREX1, 45 nM DNA and 50 mM EDTA in a volume of 20 μL. After a 5-minute incubation at room temperature, plates were read in a laser sourced Envision (Perkin-Elmer), measuring fluorescence at 615 nm following excitation w/570 nm light. IC50 values were calculated by comparing the measured fluorescence at 615 nm ratio relative to control wells pre-quenched w/stop buffer (100% inhibition) and no inhibitor (0% inhibition) controls as using non-linear least square four parameter fits and either Genedata or GraphPad Prism (GraphPad Software, Inc.).

[1] = target: T2, human TREX2 (residues M44-A279) (Homo sapiens, UniProt Q9BQ50); experiment: TREX2 Biochemical Assay (fluorescence assay, degradation of dsDNA substrate); conditions: 2.5 nM TREX2, 60 nM dsDNA substrate, 25 minutes at room temperature; read-out: hTREX2 EC50
T2 construct: human TREX2 (residues M44-A279, expressed in E. coli); His-Tev (His tag with TEV protease site) (N); made in house; host or cells: E. coli
T2 sequence (Q9BQ50 44-279 isoform Q9BQ50-1): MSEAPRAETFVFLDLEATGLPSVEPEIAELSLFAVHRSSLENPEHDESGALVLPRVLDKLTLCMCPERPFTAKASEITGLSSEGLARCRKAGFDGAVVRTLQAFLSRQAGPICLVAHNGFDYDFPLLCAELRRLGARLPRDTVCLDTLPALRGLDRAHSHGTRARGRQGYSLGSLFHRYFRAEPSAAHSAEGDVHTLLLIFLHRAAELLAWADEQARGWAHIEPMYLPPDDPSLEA
Experimental: Degradation of the dsDNA liberates free fluorophore to produce a fluorescent signal. Specifically, 7.5 μL of N-terminally His-Tev tagged human TREX2 (residues M44-A279, expressed in E. coli and purified in house) in reaction buffer (50 mM Tris (pH 7.4), 150 mM NaCl, 2 mM DTT, 0.1 mg/mL BSA, 0.01% (v/v) Tween-20 and 100 mM MgCl2) was added to a 384-well Black ProxiPlate Plus (Perkin Elmer) which already contained compound (150 nL) at varying concentrations as a 10-point dose-response in DMSO. To this was added 7.5 μL of dsDNA substrate (Strand A: 5′ TEX615/GCT AGG CAG 3′; Strand B: 5′ CTG CCT AGC/IAbRQSp (IDT)) in reaction buffer. Final concentrations were 2.5 nM TREX2, 60 nM dsDNA substrate in reaction buffer with 1.0% DMSO (v/v). After 25 minutes at room temperature, reactions were quenched by the addition of 5 μL of stop buffer (same as reaction buffer plus 200 mM EDTA). Final concentrations in the quenched reaction mixture were […] TREX2, 45 nM DNA and 50 mM EDTA in a volume of 20 μL. After a 5-minute incubation at room temperature, plates were read in a laser sourced Envision (Perkin-Elmer), measuring fluorescence at 615 nm following excitation w/570 nm light. IC50 values were calculated by comparing the measured fluorescence at 615 nm ratio relative to control wells pre-quenched w/stop buffer (100% inhibition) and no inhibitor (0% inhibition) controls as using non-linear least square four parameter fits and either Genedata or GraphPad Prism (GraphPad Software, Inc.).

pEC50 (full length human TREX1)	pEC50 [1]	Compound
< 5.00	< 4.00	C[C@H](c1cccnc1)N(Cc1ccc(Cl)cc1Cl)C(=O)c1cccc(F)c1 (single isomer, unassigned) [Compound 153]
< 5.00	< 4.00	C[C@@H](c1cccnc1)N(Cc1ccc(Cl)cc1Cl)C(=O)c1cccc(F)c1 (single isomer, unassigned) [Compound 154]
6.00 to 7.00	4.00 to 5.00	CC[C@H](c1ccc(Cl)cc1Cl)N(Cc1cccnc1)C(=O)c1cccc(F)c1 (single isomer, unassigned) [Compound 157]
5.00 to 6.00	4.00 to 5.00	CC[C@@H](c1ccc(Cl)cc1Cl)N(Cc1cccnc1)C(=O)c1cccc(F)c1 (single isomer, unassigned) [Compound 158]
5.00 to 6.00	4.00 to 5.00	CC(C)[C@H](c1ccc(Cl)cc1Cl)N(Cc1cccnc1)C(=O)c1cccc(F)c1 (single isomer, unassigned) [Compound 159]
5.00 to 6.00	4.00 to 5.00	CC(C)[C@@H](c1ccc(Cl)cc1Cl)N(Cc1cccnc1)C(=O)c1cccc(F)c1 (single isomer, unassigned) [Compound 160]
< 5.00	4.00 to 5.00	O=C(c1cccc(F)c1)N(Cc1cccnc1)[C@@H](CO)c1ccc(Cl)cc1Cl (single isomer, unassigned) [Compound 161]
6.00 to 7.00	4.00 to 5.00	O=C(c1cccc(F)c1)N(Cc1cccnc1)[C@H](CO)c1ccc(Cl)cc1Cl (single isomer, unassigned) [Compound 162]
6.00 to 7.00	4.00 to 5.00	C[C@H](c1ccc(C(N)=O)cc1Cl)N(Cc1cccnc1)C(=O)c1cccc(F)c1 (single isomer, unassigned) [Compound 163]
< 5.00	4.00 to 5.00	C[C@@H](c1ccc(C(N)=O)cc1Cl)N(Cc1cccnc1)C(=O)c1cccc(F)c1 (single isomer, unassigned) [Compound 164]
< 5.00	< 4.00	O=C(c1ccccc1)N(Cc1cccnc1)Cc1cc(Cl)cc(Cl)c1 [Compound 1, N-[(3,5-dichlorophenyl)methyl]-N-[(pyridin-3-yl)methyl]benzamide]
5.00 to 6.00	< 4.00	O=C(c1ccccc1)N(Cc1cccnc1)Cc1ccc(Cl)cc1Cl [Compound 2]
< 5.00		O=C(c1ccc(O)c(Cl)c1)N(Cc1cccnc1)Cc1ccc(Cl)cc1Cl [Compound 3]
< 5.00		O=C(c1ccccc1F)N(Cc1cccnc1)Cc1ccc(Cl)cc1Cl [Compound 4]
5.00 to 6.00	< 4.00	O=C(c1cccc(Cl)c1)N(Cc1cccnc1)Cc1ccc(Cl)cc1Cl [Compound 5]
5.00 to 6.00	< 4.00	O=C(c1ccc(Br)cc1)N(Cc1cccnc1)Cc1ccc(Cl)cc1Cl [Compound 6]
< 5.00		O=C(c1ccc(Cl)c(Cl)c1)N(Cc1cccnc1)Cc1ccc(Cl)cc1Cl [Compound 7]
< 5.00		O=C(c1ccc(Cl)cc1)N(Cc1cccnc1)Cc1ccc(Cl)cc1Cl [Compound 8]
< 5.00		Cc1ccc(C(=O)N(Cc2cccnc2)Cc2ccc(Cl)cc2Cl)c(Br)c1 [Compound 9]
5.00 to 6.00	4.00 to 5.00	O=C(c1cccc(F)c1)N(Cc1cccnc1)Cc1ccc(Cl)cc1Cl [Compound 11]
5.00 to 6.00	< 4.00	O=C(c1ccc(F)c(Br)c1)N(Cc1cccnc1)Cc1ccc(Cl)cc1Cl [Compound 12]
5.00 to 6.00		COc1cccc(C(=O)N(Cc2cccnc2)Cc2ccc(Cl)cc2Cl)c1 [Compound 13]
< 5.00		O=C(c1ccc(Cl)cc1Br)N(Cc1cccnc1)Cc1ccc(Cl)cc1Cl [Compound 14]

pEC50 (full length human TREX1)	pEC50 [1]	Compound
< 5.00		O=C(c1ccc(O)c(Br)c1)N(Cc1cccnc1)Cc1ccc(Cl)cc1Cl [Compound 15]
< 5.00		Cc1cc(C(=O)N(Cc2cccnc2)Cc2ccc(Cl)cc2Cl)ccc1Br [Compound 16]
< 5.00		O=C(c1ccc(Cl)cc1O)N(Cc1cccnc1)Cc1ccc(Cl)cc1Cl [Compound 17]
< 5.00		O=C(c1ccc(Br)cc1Cl)N(Cc1cccnc1)Cc1ccc(Cl)cc1Cl [Compound 18]
5.00 to 6.00	< 4.00	O=C(c1ccc(F)c(Cl)c1)N(Cc1cccnc1)Cc1ccc(Cl)cc1Cl [Compound 19]
< 5.00		O=C(c1cc(Cl)ccc1O)N(Cc1cccnc1)Cc1ccc(Cl)cc1Cl [Compound 20]
< 5.00		O=C(c1ccc(O)c(F)c1)N(Cc1cccnc1)Cc1ccc(Cl)cc1Cl [Compound 21]
< 5.00	< 4.00	COc1cc(C(=O)N(Cc2cccnc2)Cc2ccc(Cl)cc2Cl)cc(Cl)c1O [Compound 22]
< 5.00	< 4.00	O=C(c1cccc(F)c1)N(Cc1cccnc1)Cc1cc(Cl)cc(Cl)c1 [Compound 23]
< 5.00	< 4.00	O=C(c1ccc(-c2ccccc2)cc1)N(Cc1cccnc1)Cc1ccc(Cl)cc1Cl [Compound 24]
5.00 to 6.00	< 4.00	O=C(c1ccc(Oc2ccc(Cl)cc2)cc1)N(Cc1cccnc1)Cc1ccc(Cl)cc1Cl [Compound 25]
< 5.00	< 4.00	O=C(c1ccc(Br)cc1)N(Cc1cccnc1)Cc1cc(Cl)cc(Cl)c1 [Compound 26]
< 5.00	< 4.00	O=C(c1cc(Cl)c(O)c(Cl)c1)N(Cc1cccnc1)Cc1ccc(Cl)cc1Cl [Compound 27]
< 5.00	< 4.00	O=C(c1ccc2ccccc2c1)N(Cc1cccnc1)Cc1ccc(Cl)cc1Cl [Compound 28]
< 5.00	< 4.00	O=C(c1ccc(Cl)cc1)N(Cc1cccnc1)Cc1cc(Cl)cc(Cl)c1 [Compound 29]
< 5.00	< 4.00	O=C(c1cccc(Br)c1)N(Cc1cccnc1)Cc1cc(Cl)cc(Cl)c1 [Compound 30]
< 5.00	< 4.00	O=C(c1cccc(Oc2ccccc2)c1)N(Cc1cccnc1)Cc1ccc(Cl)cc1Cl [Compound 31]
< 5.00	< 4.00	COc1cc(C(=O)N(Cc2cccnc2)Cc2ccc(Cl)cc2Cl)cc(Br)c1OC [Compound 32]
< 5.00	< 4.00	O=C(c1ccc(Oc2ccccc2)cc1)N(Cc1cccnc1)Cc1ccc(Cl)cc1Cl [Compound 33]
< 5.00	< 4.00	O=C(c1cccc(Cl)c1)N(Cc1cccnc1)Cc1cc(Cl)cc(Cl)c1 [Compound 34]
< 5.00	< 4.00	O=C(c1ccc(O)c(Cl)c1)N(Cc1cccnc1)Cc1cc(Cl)cc(Cl)c1 [Compound 35]
< 5.00	< 4.00	COc1cccc(C(=O)N(Cc2cccnc2)Cc2cc(Cl)cc(Cl)c2)c1 [Compound 36]
